Columns and labels:
Type in all cases: in vivo, human
[1] = tested on: adult subjects with relapsing MS; assay: EDSS, time to first 12-week / 24-week confirmed disability accumulation (CDA)
Text: (§1) A 12-week CDA is an increase of at least 1.5 in EDSS for subjects with a baseline EDSS score of 0.0 or an increase of at least 1.0 in EDSS for subjects with a baseline EDSS score of 1.0 to 5.0, or an increase of at least 0.5 in EDSS for subjects with a baseline EDSS score≥5.5 which is to be confirmed after 12 weeks.
All EDSS measurements (with or without relapse, at a scheduled or unscheduled visit) were used to determine the onset of disability accumulation. However, EDSS scores used for confirmation of disability accumulation were obtained at a scheduled visit (i.e., unscheduled visits cannot be used as confirmatory visits) outside any ongoing relapse. In this context, relapse duration is defined as period between start and end dates if available and limited to 90 days from onset if end date is not available or duration is longer than 90 days.
In order to confirm that the EDSS increase is persistent, all EDSS measurements between the onset and the 12-week EDSS confirmation (minus 7-day visit time-window) need to show an increase in EDSS, meeting the criteria for accumulation of disability as defined above.
as §1, with “24-week” for “12-week”, “24” for “12”
The primary endpoint was the annualized relapse rate (ARR) over the study period. Additional outcome measures included: 1) the number of new Gd-enhancing T1 lesions from baseline to Week 108, 2) the number of new or enlarging T2 lesions (without double-counting of lesions) from baseline to Week 108, and 3) the time to 3-month and 6-month confirmed disability progression. A confirmed disability progression was defined as an increase of at least 1.5 in EDSS for patients with a baseline EDSS score of 0, an increase of at least 1.0 in EDSS for patients with a baseline EDSS score of 1.0 to 5.0, or an increase of at least 0.5 in EDSS for patients with a baseline EDSS score at least 5.5, which was confirmed after 3 months and 6 months.

[2] = tested on: adult subjects with relapsing MS; assay: Treatment-emergent adverse events and premature treatment discontinuation, phase III study (Study 1)
Method: A total of 1438 MS patients have received PONVORY at doses of at least 2 mg daily. These patients were included in Study 1 (2-year active-controlled versus teriflunomide 14 mg) [see Clinical Studies (14)] and in a Phase 2 (6-month placebo-controlled) study in patients with MS and the uncontrolled extension studies.

[3] = tested on: adult subjects with relapsing MS; assay: Brain MRI lesions (CUAL, Gd+ T1, new/enlarging T2) from baseline to Week 108
Method: CUAL are new Gd+T1 lesions plus new or enlarging T2 lesions (without double-counting of lesions).
MRI scans were performed at Visits 2 (Baseline), 10 (Week 60), and 14 (EOT) and at any unscheduled visit (U1, U2, etc.). If applicable, MRI scans also were performed at the corresponding visits in the PTOP (Visits 10A and 14A). Testing at all visits were performed up to 7 days prior to or after the visit date.
MRI variables included the number and volume of new and total Gd+ lesions on T1-weighted MRI scans, number of new and enlarging lesions and lesion volume on T2-weighted MRI, and global measures of loss of brain tissue.
T1-weighted imaging before and after i.v. administration of 0.1 mmol/kg body weight (=0.2 mL/kg) of Gd as well as PD-T2-weighted imaging was performed. Gd may cause nausea and vomiting and in very rare cases allergic reactions that could require immediate anti-anaphylactic therapy (such as steroids, epinephrine/adrenaline, etc.).
Patients (18-55 years) with RMS (expanded disability status scale scores: 0-5.5) were randomized (1:1) to receive ponesimod (PON) 20 mg or teriflunomide (TER) 14 mg for 108 weeks. MRI assessments were: volume of T2 lesions; mean number of new gadolinium-enhancing (Gd+) T1 lesions and new/enlarging T2 lesions; and absence of active MRI lesions at week 108. NEDA-3 status (absence of confirmed relapse, Gd+T1 lesions and new/enlarging T2 lesions on annual MRIs, and 12-week confirmed disability accumulation) was evaluated from baseline to week 108.

## C/C(O)=C(\C#N)C(=O)Nc1ccc(C(F)(F)F)cc1 [Teriflunomide, reference compound]
[1]; Kaplan-Meier estimates at Week 108
  Proportion of Patients with 3-month Confirmed Disability Progression: 13.2%
[1]; up to EOS
  Subjects with 24-week CDA: 9.9%
[2]; Safety Set
  Discontinuation reason: Death: (0.4) %
  Subjects who prematurely discontinued study treatment: (16.4) %
  Subjects with at least one Fatal AE: (0.4) %
[2]; human, in vivo
  Day 1 AESI Electrocardiogram QT prolonged: (0.2) %
  Day 1 AESI Presyncope: (02) %
[2]; human, in vivo, 2 year
  AE leading to discontinuation, SOC Blood and lymphatic system disorders: (0.4) %
  AE leading to discontinuation, SOC Cardiac disorders: (0.4) %
  AE leading to discontinuation, SOC Gastrointestinal disorders: (0.7) %
  AE leading to discontinuation, SOC General disorders and administration site conditions: (0.4) %
  AE leading to discontinuation, SOC Hepatobiliary disorders: (0.4) %
  AE leading to discontinuation, SOC Investigations: (1.8) %
  AE leading to discontinuation, SOC Musculoskeletal and connective tissue disorders: (0.2) %
  AE leading to discontinuation, SOC Neoplasms benign, malignant and unspecified (incl cysts and polyps): (0.2) %
  AE leading to discontinuation, SOC Nervous system disorders: (0.7) %
  AE leading to discontinuation, SOC Pregnancy, puerperium and perinatal conditions: (0.5) %
  AE leading to discontinuation, SOC Psychiatric disorders: (0.2) %
  AE leading to discontinuation, SOC Reproductive system and breast disorders: (0.2) %
  AE leading to discontinuation, SOC Skin and subcutaneous tissue disorders: (0.4) %
  AE leading to discontinuation, SOC Social circumstances: (0.2) %
  AE leading to discontinuation, SOC Surgical and medical procedures: (0.2) %
  AESI Effect on heart rate and rhythm (including hypotension): (4.2) %
  AESI Macular edema: (0.2) %
  AESI Non-skin malignancy: (0.2) %
  AESI Skin malignancy: (0.2) %
  Discontinuation reason: Physician decision, Adverse event: (1.6) %
  Discontinuation reason: Pre-specified study treatment discontinuation criteria: (2.8) %
  Discontinuation reason: Subject decision, Tolerability related: (0.9) %
  Incidence of basal cell carcinoma: 0.2%
  Overall rate of infections: 52.1%
  Subjects discontinued due to AEs or tolerability related reasons: 2.5%
  Subjects with at least one Drug-Related AE: (42.0) %
  Subjects with at least one Severe AE: (4.6) %
  TEAE ALT increased: 9.4%
  TEAE headache: 12.7%
  TEAE nasopharyngitis: 16.8%
  TEAE upper respiratory tract infection: 10.4%
[2]; human, in vivo, 2 years
  Adverse reaction: C-reactive protein increased: 1%
  Adverse reaction: Cough: 2%
  Adverse reaction: Dizziness: 3%
  Adverse reaction: Dyspnea: 1%
  Adverse reaction: Hepatic transaminase elevation: 12%
  Adverse reaction: Hypercholesterolemia: 1%
  Adverse reaction: Hypertension: 9%
  Adverse reaction: Pain in extremity: 3%
  Adverse reaction: Pyrexia: 1%
  Adverse reaction: Somnolence: 2%
  Adverse reaction: Urinary tract infection: 5%
  Adverse reaction: Vertigo: 1%
[2]; in vivo
  AESI Macular edema: none
  Discontinuation reason: Lost to follow-up: (0.5) %
  Discontinuation reason: Physician decision: (4.1) %
  Discontinuation reason: Physician decision, Lack of efficacy/treatment failure: (1.8) %
  Discontinuation reason: Physician decision, Other: (0.7) %
  Discontinuation reason: Subject decision: (8.7) %
  Discontinuation reason: Subject decision, Efficacy related: (2.5) %
  Discontinuation reason: Subject decision, Not known: (0.7) %
  Discontinuation reason: Subject decision, Other: (4.6) %
[3]; baseline to Week 108, negative binomial regression, Full Analysis Set
  CUAL mean estimate (Lesions per year): 3.164 lesions per year
[3]; baseline to week 108
  Mean number of new Gd+ T1 lesions per scan / per MRI: 0.43

Reference: US12419869B2, “Methods of treating multiple sclerosis” (Vanda Pharmaceuticals Inc., priority 2021, dated 2025)
